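Each compound was tested at five concentrations against cells in 96-well plates for 48 hours. Here, GI50 denotes the concentration required for 50% inhibition of growth.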 Active and inactive are the calls of the source. No stated cut-off is given here; in the data, active = GI50 up to about 1.1 µM and inactive = higher.
Legend:
Test in all cases: NCI anticancer screen, dose series, 48 h
[1] = test system: RXF 631
[2] = test system: SF-539
[3] = test system: OVCAR-8
[4] = test system: NCI-H460
[5] = test system: HCC 2998
[6] = test system: M14
[7] = test system: LXFL 529
[8] = test system: SF-295
[9] = test system: XF498
[10] = test system: ACHN
[11] = test system: KM12
[12] = test system: HL-60
[13] = test system: SNB-78
[14] = test system: EKVX
[15] = test system: IGROV-1
[16] = test system: SN12C
[17] = test system: UACC-62
[18] = test system: UO-31
[19] = test system: RXF 393
[20] = test system: SNB-75
[21] = test system: OVCAR-4
[22] = test system: HOP-92
[23] = test system: DMS-273
[24] = test system: NCI-H23
[25] = test system: TK-10
[26] = test system: U-251
[27] = test system: A498
[28] = test system: COLO 205
[29] = test system: HOP-62
[30] = test system: LOX IMVI
[31] = test system: DMS-114
[32] = test system: RPMI-8226
[33] = test system: SK-OV-3
[34] = test system: HOP-18
[35] = test system: SR
[36] = test system: NCI-H522
[37] = test system: M19-MEL
[38] = test system: SK-MEL-28
[39] = test system: A549
[40] = test system: CCRF-CEM
[41] = test system: K562
[42] = test system: CAKI-1
[43] = test system: OVCAR-3
[44] = test system: 786-0
[45] = test system: MOLT-4
[46] = test system: KM-20L2
[47] = test system: HCT-116
[48] = test system: NCI-H226
[49] = test system: SNB-19
[50] = test system: DLD-1
[51] = test system: SF-268
[52] = test system: SK-MEL-2
[53] = test system: Malme-3M
[54] = test system: SK-MEL-5
[55] = test system: HCT-15
[56] = test system: UACC-257
[57] = test system: HT-29
[58] = test system: OVCAR-5
[59] = test system: SW-620

Measured: GI50

CCOc1ccc2nc(NC(=O)C(=O)C(C#N)CC(C)(C)C=O)sc2c1 (stereo not given)
inactive: [1] > 100 µM | [2] 75.7 µM | [3] > 100 µM | [4] > 100 µM | [5] > 100 µM | [6] > 100 µM | [7] > 100 µM | [8] > 100 µM | [9] > 100 µM | [10] > 100 µM | [11] > 100 µM | [12] > 100 µM | [13] > 100 µM | [14] > 100 µM | [15] > 100 µM | [16] > 100 µM | [17] > 100 µM | [18] > 100 µM | [19] > 100 µM | [20] > 100 µM | [21] > 100 µM | [22] > 100 µM | [23] 18.7 µM | [24] > 100 µM | [25] > 100 µM | [26] > 100 µM | [27] > 100 µM | [28] > 100 µM | [29] > 100 µM | [30] 44.2 µM | [31] 35.6 µM | [32] 75.3 µM | [33] > 100 µM | [34] > 100 µM | [35] 21 µM | [36] 49.9 µM | [37] 61.2 µM | [38] > 100 µM | [39] > 100 µM | [40] 26.9 µM | [41] 52.7 µM | [42] > 100 µM | [43] > 100 µM | [44] > 100 µM | [45] > 100 µM | [46] > 100 µM | [47] > 100 µM | [48] > 100 µM | [49] > 100 µM | [50] > 100 µM | [51] > 100 µM | [52] > 100 µM | [53] > 100 µM | [54] > 100 µM | [56] > 100 µM | [57] > 100 µM | [58] > 100 µM
43.9 µM: [55]

CCOC(=O)N[C@@H]1C(CC(=O)OC)O[C@H]2OC(C)(C)O[C@H]21 (stereo not given in full)
> 100 µM: [55]
inactive: [1] > 100 µM | [2] > 100 µM | [4] > 100 µM | [5] > 100 µM | [6] > 100 µM | [7] > 100 µM | [8] > 100 µM | [9] > 100 µM | [10] > 100 µM | [11] > 100 µM | [12] > 100 µM | [13] > 100 µM | [15] > 100 µM | [16] > 100 µM | [17] > 100 µM | [18] > 100 µM | [19] > 100 µM | [20] > 100 µM | [21] > 100 µM | [22] > 100 µM | [23] > 100 µM | [24] > 100 µM | [26] > 100 µM | [27] > 100 µM | [28] > 100 µM | [29] > 100 µM | [30] > 100 µM | [31] > 100 µM | [32] > 100 µM | [33] > 100 µM | [34] > 100 µM | [37] > 100 µM | [38] > 100 µM | [39] > 100 µM | [40] > 100 µM | [41] > 100 µM | [42] > 100 µM | [43] > 100 µM | [44] > 100 µM | [45] > 100 µM | [46] > 100 µM | [48] > 100 µM | [50] > 100 µM | [51] > 100 µM | [52] > 100 µM | [53] > 100 µM | [54] > 100 µM | [56] > 100 µM | [59] > 100 µM | [57] > 100 µM | [58] > 100 µM

From ChEMBL document CHEMBL1201862, “PubChem BioAssay data set” (2004)
